Legend:
[1] = target: Melatonin MT2 (Homo sapiens, UniProt P49286); assay: Secondary receptor binding profile
[2] = target: GABAA α3β3γ2; parameters: method as in Christian et al 2015; conditions: recombinant Sf9 membranes α3β3γ2; [3H]flunitrazepam; mean (SD); ref Christian et al 2015; read-out: Affinity in vitro at BZ binding site (Ki) α3; cited from earlier work
[3] = test system: GABAA α5β3γ2; parameters: method as in Christian et al 2015; conditions: 1µM test concentration, GABA EC10, % of 1 µM diazepam, mean ±SE, ref Christian et al 2015; cited from earlier work
[4] = target: P-gp (Homo sapiens, UniProt P08183); assay: P-gp substrate assessment; assay type: in vitro ADME
[5] = test system: generalized anxiety disorder; parameters: method as in Chen et al. 2014, ClinTrials.gov; conditions: ref Chen et al. 2014, ClinTrials.gov; cited from earlier work

Chain of P-gp (P08183 whole entry): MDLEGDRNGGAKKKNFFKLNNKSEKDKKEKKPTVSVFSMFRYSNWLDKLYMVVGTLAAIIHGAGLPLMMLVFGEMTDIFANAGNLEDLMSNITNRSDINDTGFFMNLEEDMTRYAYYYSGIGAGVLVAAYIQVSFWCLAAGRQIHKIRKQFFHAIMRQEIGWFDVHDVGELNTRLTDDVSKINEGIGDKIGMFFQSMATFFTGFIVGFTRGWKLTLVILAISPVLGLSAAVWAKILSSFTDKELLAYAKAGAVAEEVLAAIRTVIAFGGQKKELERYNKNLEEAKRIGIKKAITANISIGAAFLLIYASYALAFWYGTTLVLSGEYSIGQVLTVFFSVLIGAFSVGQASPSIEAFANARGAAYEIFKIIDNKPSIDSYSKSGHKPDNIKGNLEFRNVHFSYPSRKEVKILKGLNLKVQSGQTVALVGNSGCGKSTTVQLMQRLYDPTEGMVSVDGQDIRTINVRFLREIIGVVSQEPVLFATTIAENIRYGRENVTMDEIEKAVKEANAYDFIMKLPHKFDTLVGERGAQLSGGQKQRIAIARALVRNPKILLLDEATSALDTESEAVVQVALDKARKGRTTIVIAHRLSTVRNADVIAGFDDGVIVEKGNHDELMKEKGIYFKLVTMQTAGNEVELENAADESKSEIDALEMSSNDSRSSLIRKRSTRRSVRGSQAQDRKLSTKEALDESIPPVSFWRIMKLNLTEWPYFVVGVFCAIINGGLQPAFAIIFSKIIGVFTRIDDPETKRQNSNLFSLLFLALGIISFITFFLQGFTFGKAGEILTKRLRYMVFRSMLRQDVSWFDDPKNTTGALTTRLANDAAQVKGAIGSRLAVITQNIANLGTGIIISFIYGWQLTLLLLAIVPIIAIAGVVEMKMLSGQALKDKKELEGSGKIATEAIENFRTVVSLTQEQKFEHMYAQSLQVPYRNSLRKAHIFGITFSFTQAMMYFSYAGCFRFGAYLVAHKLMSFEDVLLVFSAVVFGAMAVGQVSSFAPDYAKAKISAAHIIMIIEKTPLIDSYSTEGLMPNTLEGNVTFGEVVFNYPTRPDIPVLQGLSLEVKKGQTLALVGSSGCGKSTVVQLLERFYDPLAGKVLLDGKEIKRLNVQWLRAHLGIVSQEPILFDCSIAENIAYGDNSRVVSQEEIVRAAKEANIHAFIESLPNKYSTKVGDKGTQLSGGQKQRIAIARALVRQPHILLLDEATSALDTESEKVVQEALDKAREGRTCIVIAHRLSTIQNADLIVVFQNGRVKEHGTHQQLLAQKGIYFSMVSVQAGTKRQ
Chain of Melatonin MT2 (P49286 whole entry): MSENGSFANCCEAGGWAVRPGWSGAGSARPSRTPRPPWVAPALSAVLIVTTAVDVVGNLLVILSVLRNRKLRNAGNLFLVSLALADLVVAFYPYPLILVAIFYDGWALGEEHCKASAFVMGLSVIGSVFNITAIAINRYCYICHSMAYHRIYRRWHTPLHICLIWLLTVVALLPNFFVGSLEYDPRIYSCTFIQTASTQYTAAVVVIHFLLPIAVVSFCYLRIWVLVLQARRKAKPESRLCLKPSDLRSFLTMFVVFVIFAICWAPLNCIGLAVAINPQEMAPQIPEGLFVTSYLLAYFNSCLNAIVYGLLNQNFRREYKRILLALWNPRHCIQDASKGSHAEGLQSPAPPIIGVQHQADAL

CCCNC(=O)c1nnc2c(-c3cc(OC)ccc3OC)cccc2c1N [AZD6280]
IC50 [1]: 664 nM | Ki [2]: 31 ± 17 nM | Relative efficacy (%DZ) α5 [3]: 8±2% | P-gp substrate [4]: Neither compound is a P-gp substrate

CCCNC(=O)c1nnc2c(-c3c(F)cccc3OC)cccc2c1N [AZD7325]
anxiolytic effect in patients with generalized anxiety disorder [5]: only a weak anxiolytic effect

— PMC5263201, “GABAA receptor occupancy by subtype selective GABAAα2,3 modulators: PET studies in humans” (Psychopharmacology, 2016)
